One assay addresses Beta-2 adrenergic receptor (Homo sapiens, UniProt P07550). The experiment in a line: DRUGMATRIX: Adrenergic beta2 radioligand binding (ligand: [3H] CGP-12177). The assay is classed as cell membranes, CHO, Membrane. As to conditions: cho; Not Active = under 50% inhibition at 10 µM.
Sequence of Beta-2 adrenergic receptor (P07550 whole entry): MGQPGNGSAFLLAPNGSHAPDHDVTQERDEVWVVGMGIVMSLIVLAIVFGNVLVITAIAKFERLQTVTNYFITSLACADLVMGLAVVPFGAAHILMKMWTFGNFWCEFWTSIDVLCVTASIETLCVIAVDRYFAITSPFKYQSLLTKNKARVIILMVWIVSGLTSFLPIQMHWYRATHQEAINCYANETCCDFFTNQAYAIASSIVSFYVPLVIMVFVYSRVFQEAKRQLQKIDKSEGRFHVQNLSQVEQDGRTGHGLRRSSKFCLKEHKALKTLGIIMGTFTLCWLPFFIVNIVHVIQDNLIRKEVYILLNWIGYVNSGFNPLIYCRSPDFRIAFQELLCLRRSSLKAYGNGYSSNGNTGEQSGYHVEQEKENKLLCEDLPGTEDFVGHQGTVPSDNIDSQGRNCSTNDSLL
`Nn1nnc2ccccc21`: the IC50 entry is reported as “Not Active”.

With `CC[C@]1(O)CC[C@H]2[C@@H]3CCC4=CCCC[C@@H]4[C@H]3CC[C@@]21C`, the IC50 result is reported as “Not Active”.

Take `N[C@@H](Cc1ccc(F)cc1)C(=O)O`: the IC50 entry is “Not Active”.

Consider `CCOC(=O)[C@H](CCc1ccccc1)N[C@@H](C)C(=O)N1Cc2ccccc2C[C@H]1C(=O)O`, for which the IC50 result is “Not Active”.

For the compound `O=C(c1ccccc1Cl)N1CCC(Cc2ccccc2)CC1`, the IC50 entry was “Not Active”.

On to `CCOC(=O)[C@H](CCc1ccccc1)N[C@@H](C)C(=O)N1CCC[C@H]1C(=O)O`, for which the IC50 result is “Not Active”.

As to `Clc1cc2c(cc1Cl)Oc1cc(Cl)c(Cl)cc1O2` [2,3,7,8-TETRACHLORODIBENZO-P-DIOXIN], the IC50 entry is “Not Active”.

As to `C=C1/C(=C\C=C2/CCC[C@]3(C)[C@@H]([C@H](C)CCCC(C)C)CC[C@@H]23)C[C@@H](O)C[C@@H]1O` [ALFACALCIDOL], the IC50 entry is given as “Not Active”.

As for `CCCCCC[C@H]1C(=O)O[C@H](C)[C@H](NC(=O)c2cccc(NC=O)c2O)C(=O)O[C@@H](C)[C@@H]1OC(=O)CC(C)C` [ANTIMYCIN A], the IC50 entry is reported as “Not Active”.

For another assay, the target named is Beta-3 adrenergic receptor (Homo sapiens, UniProt P13945). The experiment in a line: DRUGMATRIX: Adrenergic beta3 radioligand binding (ligand: [125I] Cyanopindolol). The assay is classed as cell membranes, HEK293, Membrane. As to conditions: hek293; Not Active = under 50% inhibition at 10 µM.
Sequence of Beta-3 adrenergic receptor (P13945 whole entry): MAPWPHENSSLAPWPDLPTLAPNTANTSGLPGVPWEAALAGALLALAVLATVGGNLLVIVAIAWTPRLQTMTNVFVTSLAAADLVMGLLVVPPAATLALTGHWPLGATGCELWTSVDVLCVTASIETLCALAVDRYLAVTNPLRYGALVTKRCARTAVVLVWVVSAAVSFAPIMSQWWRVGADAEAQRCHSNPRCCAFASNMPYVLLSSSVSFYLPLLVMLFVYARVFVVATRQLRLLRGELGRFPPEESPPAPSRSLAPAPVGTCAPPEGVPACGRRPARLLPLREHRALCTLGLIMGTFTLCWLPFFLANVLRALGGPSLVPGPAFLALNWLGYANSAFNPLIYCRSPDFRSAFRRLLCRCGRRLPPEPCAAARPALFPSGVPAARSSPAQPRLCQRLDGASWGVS
In the case of `Nn1nnc2ccccc21`, the IC50 result was “Not Active”.

For `CC[C@]1(O)CC[C@H]2[C@@H]3CCC4=CCCC[C@@H]4[C@H]3CC[C@@]21C`, the IC50 entry was “Not Active”.

For the compound `N[C@@H](Cc1ccc(F)cc1)C(=O)O`, the IC50 entry is “Not Active”.

For the compound `CCOC(=O)[C@H](CCc1ccccc1)N[C@@H](C)C(=O)N1Cc2ccccc2C[C@H]1C(=O)O`, the IC50 entry is recorded as “Not Active”.

On to `O=C(c1ccccc1Cl)N1CCC(Cc2ccccc2)CC1`, for which the IC50 entry is on record as “Not Active”.

Take `CCOC(=O)[C@H](CCc1ccccc1)N[C@@H](C)C(=O)N1CCC[C@H]1C(=O)O`: the IC50 entry is on record as “Not Active”.

Turning to `Clc1cc2c(cc1Cl)Oc1cc(Cl)c(Cl)cc1O2` [2,3,7,8-TETRACHLORODIBENZO-P-DIOXIN], the IC50 result is “Not Active”.

For the compound `C=C1/C(=C\C=C2/CCC[C@]3(C)[C@@H]([C@H](C)CCCC(C)C)CC[C@@H]23)C[C@@H](O)C[C@@H]1O` [ALFACALCIDOL], the IC50 entry is recorded as “Not Active”.

Consider `CCCCCC[C@H]1C(=O)O[C@H](C)[C@H](NC(=O)c2cccc(NC=O)c2O)C(=O)O[C@@H](C)[C@@H]1OC(=O)CC(C)C` [ANTIMYCIN A], for which the IC50 entry is given as “Not Active”.

System in another assay: not listed separately
The experiment in a line: DRUGMATRIX: ATPase, Na+/K+ enzyme inhibition (substrate: ATP). The assay is classed as tissue-based, Sus scrofa, Heart. As to conditions: Not Active = under 50% inhibition at 10 µM.
On to `Nn1nnc2ccccc21`, for which the IC50 entry is “Not Active” and the Ki entry is “Not Active”.

Regarding `CC[C@]1(O)CC[C@H]2[C@@H]3CCC4=CCCC[C@@H]4[C@H]3CC[C@@]21C`, the IC50 result was “Not Active” and the Ki entry is recorded as “Not Active”.

For the compound `N[C@@H](Cc1ccc(F)cc1)C(=O)O`, the IC50 result is reported as “Not Active” and the Ki entry was “Not Active”.

For the compound `CCOC(=O)[C@H](CCc1ccccc1)N[C@@H](C)C(=O)N1Cc2ccccc2C[C@H]1C(=O)O`, the IC50 entry is listed as “Not Active” and the Ki result is recorded as “Not Active”.

In the case of `O=C(c1ccccc1Cl)N1CCC(Cc2ccccc2)CC1`, the IC50 entry is recorded as “Not Active” and the Ki entry is recorded as “Not Active”.

`CCOC(=O)[C@H](CCc1ccccc1)N[C@@H](C)C(=O)N1CCC[C@H]1C(=O)O`: the IC50 result is “Not Active” and the Ki result is given as “Not Active”.

As for `Clc1cc2c(cc1Cl)Oc1cc(Cl)c(Cl)cc1O2` [2,3,7,8-TETRACHLORODIBENZO-P-DIOXIN], the IC50 entry is reported as “Not Active” and the Ki entry is reported as “Not Active”.

For `C=C1/C(=C\C=C2/CCC[C@]3(C)[C@@H]([C@H](C)CCCC(C)C)CC[C@@H]23)C[C@@H](O)C[C@@H]1O` [ALFACALCIDOL], the IC50 entry is listed as “Not Active” and the Ki entry is on record as “Not Active”.

Turning to `CCCCCC[C@H]1C(=O)O[C@H](C)[C@H](NC(=O)c2cccc(NC=O)c2O)C(=O)O[C@@H](C)[C@@H]1OC(=O)CC(C)C` [ANTIMYCIN A], the IC50 entry was “Not Active” and the Ki entry is listed as “Not Active”.

The next assay deals with Cannabinoid receptor 1 (Homo sapiens, UniProt P21554).
Sequence of Cannabinoid receptor 1 (P21554 whole entry): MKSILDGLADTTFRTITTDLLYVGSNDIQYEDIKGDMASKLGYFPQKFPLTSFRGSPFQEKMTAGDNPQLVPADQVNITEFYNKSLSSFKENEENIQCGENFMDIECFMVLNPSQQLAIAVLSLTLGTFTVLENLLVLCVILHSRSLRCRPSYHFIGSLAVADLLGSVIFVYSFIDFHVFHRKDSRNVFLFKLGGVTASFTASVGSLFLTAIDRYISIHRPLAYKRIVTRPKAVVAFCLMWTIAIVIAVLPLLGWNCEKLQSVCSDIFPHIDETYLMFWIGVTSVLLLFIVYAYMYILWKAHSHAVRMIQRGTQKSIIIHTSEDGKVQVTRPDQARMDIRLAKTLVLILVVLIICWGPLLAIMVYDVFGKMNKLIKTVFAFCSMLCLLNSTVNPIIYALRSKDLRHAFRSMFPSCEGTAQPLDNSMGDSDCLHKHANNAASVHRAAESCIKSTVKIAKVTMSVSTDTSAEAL
Assay: not given
The assay is classed as cell membranes, Membrane. As to conditions: chem-1.
As to `Nn1nnc2ccccc21`, the IC50 result is “Not Active”.

Take `CC[C@]1(O)CC[C@H]2[C@@H]3CCC4=CCCC[C@@H]4[C@H]3CC[C@@]21C`: the IC50 result is recorded as “Not Active”.

Consider `N[C@@H](Cc1ccc(F)cc1)C(=O)O`, for which the IC50 entry is given as “Not Active”.

Take `CCOC(=O)[C@H](CCc1ccccc1)N[C@@H](C)C(=O)N1Cc2ccccc2C[C@H]1C(=O)O`: the IC50 entry was “Not Active”.

For `O=C(c1ccccc1Cl)N1CCC(Cc2ccccc2)CC1`, the IC50 entry is reported as “Not Active”.

Take `CCOC(=O)[C@H](CCc1ccccc1)N[C@@H](C)C(=O)N1CCC[C@H]1C(=O)O`: the IC50 result is “Not Active”.

`Clc1cc2c(cc1Cl)Oc1cc(Cl)c(Cl)cc1O2` [2,3,7,8-TETRACHLORODIBENZO-P-DIOXIN]: the IC50 result is “Not Active”.

On to `C=C1/C(=C\C=C2/CCC[C@]3(C)[C@@H]([C@H](C)CCCC(C)C)CC[C@@H]23)C[C@@H](O)C[C@@H]1O` [ALFACALCIDOL], for which the IC50 entry is recorded as “Not Active”.

As for `CCCCCC[C@H]1C(=O)O[C@H](C)[C@H](NC(=O)c2cccc(NC=O)c2O)C(=O)O[C@@H](C)[C@@H]1OC(=O)CC(C)C` [ANTIMYCIN A], the IC50 result was “Not Active”.

System in a further assay: not listed separately
In words: DRUGMATRIX: Phorbol Ester radioligand binding (ligand: [3H] PDBu). The assay is classed as cell membranes, Mus musculus, ICR, Brain, Membrane. As to conditions: Not Active = under 50% inhibition at 10 µM.
For `Nn1nnc2ccccc21`, the IC50 result is recorded as “Not Active” and the Ki entry is “Not Active”.

As to `CC[C@]1(O)CC[C@H]2[C@@H]3CCC4=CCCC[C@@H]4[C@H]3CC[C@@]21C`, the IC50 entry is “Not Active” and the Ki entry is “Not Active”.

`N[C@@H](Cc1ccc(F)cc1)C(=O)O`: the IC50 entry is “Not Active” and the Ki entry is given as “Not Active”.

For the compound `CCOC(=O)[C@H](CCc1ccccc1)N[C@@H](C)C(=O)N1Cc2ccccc2C[C@H]1C(=O)O`, the IC50 entry is reported as “Not Active” and the Ki result is listed as “Not Active”.

In the case of `O=C(c1ccccc1Cl)N1CCC(Cc2ccccc2)CC1`, the IC50 result is given as “Not Active” and the Ki entry is recorded as “Not Active”.

Take `CCOC(=O)[C@H](CCc1ccccc1)N[C@@H](C)C(=O)N1CCC[C@H]1C(=O)O`: the IC50 entry is on record as “Not Active” and the Ki entry was “Not Active”.

Regarding `Clc1cc2c(cc1Cl)Oc1cc(Cl)c(Cl)cc1O2` [2,3,7,8-TETRACHLORODIBENZO-P-DIOXIN], the IC50 entry is “Not Active” and the Ki result is on record as “Not Active”.

As for `C=C1/C(=C\C=C2/CCC[C@]3(C)[C@@H]([C@H](C)CCCC(C)C)CC[C@@H]23)C[C@@H](O)C[C@@H]1O` [ALFACALCIDOL], the IC50 entry was “Not Active” and the Ki entry is given as “Not Active”.

For `CCCCCC[C@H]1C(=O)O[C@H](C)[C@H](NC(=O)c2cccc(NC=O)c2O)C(=O)O[C@@H](C)[C@@H]1OC(=O)CC(C)C` [ANTIMYCIN A], the IC50 entry is given as “Not Active” and the Ki entry is reported as “Not Active”.

The target in another assay is Platelet-activating factor receptor (Homo sapiens, UniProt P25105). In words: biochemical. The assay is classed as tissue-based. As to conditions: platelet. Note: in other assays of this panel Not Active means under 50% inhibition at 10 µM.
Sequence of Platelet-activating factor receptor (P25105 whole entry): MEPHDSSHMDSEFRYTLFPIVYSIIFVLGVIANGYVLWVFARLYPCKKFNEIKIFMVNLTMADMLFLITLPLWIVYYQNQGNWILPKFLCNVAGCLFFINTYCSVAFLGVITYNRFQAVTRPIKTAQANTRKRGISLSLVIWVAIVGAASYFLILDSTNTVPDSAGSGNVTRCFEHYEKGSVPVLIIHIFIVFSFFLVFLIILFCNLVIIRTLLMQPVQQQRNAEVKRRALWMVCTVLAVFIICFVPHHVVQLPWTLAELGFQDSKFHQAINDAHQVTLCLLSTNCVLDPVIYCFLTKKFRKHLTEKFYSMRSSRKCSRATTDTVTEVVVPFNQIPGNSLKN
In the case of `Nn1nnc2ccccc21`, the IC50 entry is listed as “Not Active”.

Regarding `CC[C@]1(O)CC[C@H]2[C@@H]3CCC4=CCCC[C@@H]4[C@H]3CC[C@@]21C`, the IC50 entry is reported as “Not Active”.

Consider `N[C@@H](Cc1ccc(F)cc1)C(=O)O`, for which the IC50 result is reported as “Not Active”.

In the case of `CCOC(=O)[C@H](CCc1ccccc1)N[C@@H](C)C(=O)N1Cc2ccccc2C[C@H]1C(=O)O`, the IC50 entry was “Not Active”.

In the case of `O=C(c1ccccc1Cl)N1CCC(Cc2ccccc2)CC1`, the IC50 entry is “Not Active”.

Regarding `CCOC(=O)[C@H](CCc1ccccc1)N[C@@H](C)C(=O)N1CCC[C@H]1C(=O)O`, the IC50 result is on record as “Not Active”.

Turning to `Clc1cc2c(cc1Cl)Oc1cc(Cl)c(Cl)cc1O2` [2,3,7,8-TETRACHLORODIBENZO-P-DIOXIN], the IC50 result is given as “Not Active”.

Take `C=C1/C(=C\C=C2/CCC[C@]3(C)[C@@H]([C@H](C)CCCC(C)C)CC[C@@H]23)C[C@@H](O)C[C@@H]1O` [ALFACALCIDOL]: the IC50 result was “Not Active”.

For `CCCCCC[C@H]1C(=O)O[C@H](C)[C@H](NC(=O)c2cccc(NC=O)c2O)C(=O)O[C@@H](C)[C@@H]1OC(=O)CC(C)C` [ANTIMYCIN A], the IC50 result was “Not Active”.

Another assay has as its target T1, Neutrophil elastase (Homo sapiens, UniProt P08246).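 Note: inhibition of neutrophil elastase enzyme activity, measured with a p-nitroanilide-linked peptide substrate; in other assays of this panel Not Active means under 50% inhibition at 10 µM.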
T1 sequence (P08246 whole entry): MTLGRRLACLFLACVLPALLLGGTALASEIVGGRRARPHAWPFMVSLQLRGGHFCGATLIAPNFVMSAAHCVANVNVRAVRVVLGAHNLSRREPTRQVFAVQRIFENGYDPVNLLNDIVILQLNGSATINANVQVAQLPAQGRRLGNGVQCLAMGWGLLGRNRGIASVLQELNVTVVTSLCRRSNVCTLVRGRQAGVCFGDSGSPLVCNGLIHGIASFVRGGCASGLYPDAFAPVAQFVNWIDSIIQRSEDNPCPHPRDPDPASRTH
Assay: not given
The assay is classed as tissue-based.
Details: not given
For the compound `Nn1nnc2ccccc21`, the IC50 entry is recorded as “Not Active”.

Consider `CC[C@]1(O)CC[C@H]2[C@@H]3CCC4=CCCC[C@@H]4[C@H]3CC[C@@]21C`, for which the IC50 entry is listed as “Not Active”.

Turning to `N[C@@H](Cc1ccc(F)cc1)C(=O)O`, the IC50 result was “Not Active”.

`CCOC(=O)[C@H](CCc1ccccc1)N[C@@H](C)C(=O)N1Cc2ccccc2C[C@H]1C(=O)O`: the IC50 entry is recorded as “Not Active”.

Consider `O=C(c1ccccc1Cl)N1CCC(Cc2ccccc2)CC1`, for which the IC50 entry is listed as “Not Active”.

As to `CCOC(=O)[C@H](CCc1ccccc1)N[C@@H](C)C(=O)N1CCC[C@H]1C(=O)O`, the IC50 result is recorded as “Not Active”.

Take `Clc1cc2c(cc1Cl)Oc1cc(Cl)c(Cl)cc1O2` [2,3,7,8-TETRACHLORODIBENZO-P-DIOXIN]: the IC50 result is recorded as “Not Active”.

Consider `C=C1/C(=C\C=C2/CCC[C@]3(C)[C@@H]([C@H](C)CCCC(C)C)CC[C@@H]23)C[C@@H](O)C[C@@H]1O` [ALFACALCIDOL], for which the IC50 entry was “Not Active”.

`CCCCCC[C@H]1C(=O)O[C@H](C)[C@H](NC(=O)c2cccc(NC=O)c2O)C(=O)O[C@@H](C)[C@@H]1OC(=O)CC(C)C` [ANTIMYCIN A]: the IC50 entry is on record as “Not Active”.

Values taken from ChEMBL document CHEMBL1909046, “DrugMatrix in vitro pharmacology data”.
